Measured values from patent US6548284B1, “Membrane-bound metalloprotease and soluble secreted form thereof” (JCR Pharmaceuticals Co., Ltd., priority 2000, dated 2003).
“Also recorded” adds a separate entry of the source. Ends that are not written are not given here.

Legend:
soluble form of SEP [1] = target: T1, soluble form of SEP (Mus musculus, UniProt Q9JLI3); test: SEP-catalyzed hydrolysis of bioactive peptides monitored by HPLC; type: biochemical; conditions: by recombinant soluble SEP, substrate peak area vs control
T1 construct: partially purified the soluble form of SEP from the conditioned medium of CHO/SEP cells; made in house; host or cells: CHO-K1 cells, transient transfection; conditioned medium partially purified on a wheat germ lectin column
T1 sequence (Q9JLI3 63-765 limits assumed): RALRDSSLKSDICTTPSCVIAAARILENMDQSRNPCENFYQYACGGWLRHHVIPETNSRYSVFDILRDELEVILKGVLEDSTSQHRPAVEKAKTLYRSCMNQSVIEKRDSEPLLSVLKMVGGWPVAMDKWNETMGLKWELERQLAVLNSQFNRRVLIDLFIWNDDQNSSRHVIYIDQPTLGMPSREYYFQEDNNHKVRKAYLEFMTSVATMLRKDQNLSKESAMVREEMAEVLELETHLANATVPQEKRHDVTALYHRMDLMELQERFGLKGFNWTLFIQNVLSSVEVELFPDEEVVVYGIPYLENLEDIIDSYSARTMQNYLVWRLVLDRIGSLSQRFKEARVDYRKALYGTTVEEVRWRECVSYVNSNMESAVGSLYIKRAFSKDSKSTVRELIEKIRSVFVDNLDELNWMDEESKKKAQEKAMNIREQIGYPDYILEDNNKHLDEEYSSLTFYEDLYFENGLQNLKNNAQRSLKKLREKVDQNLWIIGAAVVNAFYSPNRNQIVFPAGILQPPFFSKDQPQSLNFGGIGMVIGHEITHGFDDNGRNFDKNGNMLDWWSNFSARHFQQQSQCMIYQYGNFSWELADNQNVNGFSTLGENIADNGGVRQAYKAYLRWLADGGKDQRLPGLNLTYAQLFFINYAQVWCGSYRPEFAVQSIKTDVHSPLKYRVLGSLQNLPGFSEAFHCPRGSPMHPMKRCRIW
Protocol: (§1) CHO-K1 cells were cultured [Emoto, N. et al., J. Biol. Chem., 274:1509-1518(1999)]. Double transfection of prepro-ET-1and ECE-1a, SEP, or SEP^Δ was performed using LipofectAMINE (Life Technologies, Inc.). Twelve hours after transfection, cells were refed with fresh medium. […] For in vitro enzymological charactenization, an SEP expression construct was transiently transfected into CHO-K1 cells. The medium was conditioned for 48 h in CHO-SFM II (Life Technologies, Inc.) and was subjected to a wheat germ lectin column (1×1 ml HiTrap wheat germ lectin; Amersham Pharmacia Biotech) equilibrated with 20 mM Tris-Cl (pH 7.4) and 0.5M NaCl. The column was washed and eluted with the same buffer containing 0.5M N-acetylglucosamine. The active fraction was subsequently subjected to a Centriprep concentrator (Amicon).
(§2) Reaction mixtures for enzyme assay (100 μl) contained 0.1 M MES-NaOH(pH 7.4), 0.5 μM peptide, and an enzyme fraction. For some experiments, the reactions were preincubated at 37° C. with various protease inhibitors for 15 min prior to the addition of the peptide. The reactions were incubated at 37° C. for 1-12 h in siliconized 0.5-ml microcentrifuge tubes. The enzyme reaction was terminated by adding 1 μl of 10 mM EDTA. The mixture was then injected into a C18 reverse-phase high pressure liquid chromatography (HPLC) column (μRPC C2/C18, ST4.6/100; Amersham Pharmacia Biotech) that was equilibrated with 10% (v/v) acetonitrile and 0.1% (v/v) trifluoroacetic acid. The column was eluted at a flow rate of 1 ml/min with a 10-80% linear gradient of acetonitrile and 0.1% trifluoroacetic acid over 43 min, followed by a 100% acetonitrile for an additional 3 min. Peptides were detected by absorbance at 220 nm.
Previously, the present inventors have shown that ECE-1 cleaves the Trp^21-Val^22 bond of big ET-1 (1-38) to produce mature ET-1(1-21) and the C-terminal half of big ET-1(22-38) without further cleaving other parts of big ET-1 or ET-1 [Xu, D. et al., Cell, 78:473-485(1994)]. To examine the cleavage site(s) of big ET-1 and mature ET-1 by recombinant SEP in an […] assay, the present inventors partially purified the soluble form of SEP from the conditioned medium of CHO/SEP cells. The present inventors then incubated relatively large amounts of big ET-1 (10 μM) and ET-1 (1.5 μM) with partially purified SEP for a prolonged period of time (12 h) while directly monitoring the cleavage by reverse-phase HPLC. Product peaks were collected, and the peptides were identified by mass spectrometry. Big ET-1 (1-38) was hydrolyzed to a significant degree (42%) by the soluble form of SEP, and HPLC resolved at least four distinct product peaks (FIG. 7B). Two peptides products (FIG. 7C, peaks 1 and 4) were co-eluted with the standards of big ET-1 (22-38) and mature ET-1 (1-21), respectively. Analysis using mass spectrometry confirmed that they were big ET-1 (22-38) and mature ET-1(1-2 1), with an m/z value for (M+H)^+ of 1810 and 2493, respectively. These finding indicate that the soluble form of SEP can produce ET-1 by cleaving at the specific Trp^21-Val^22 site of big ET-1. On the other hand, it appears that ET-1 is further digested by the soluble form of SEP. […] These two major peaks (FIG. 7D, peaks 1 and 2) from mature ET-1 were co-eluted with the peaks (FIG. […], peaks 2 and 3, respectively) produced from big ET-1 hydrolysis. Using molecular masses, one peptide product (FIG. 7; C, peak 3, and D, peak 2) was identified as ET-1 (1-16). Another peptide product (FIG. 7; C, peak 2, and D, peak 1) appeared to be the two-chain ET-1 (1-16), which is held together by two disulfide bonds between Cys^1 and Cys^15 and between Cys^3 and Cys^11, presumably produced by cleavage at one site between Ser^4 and Glu^10 of ET-1 (1-16).
Finally, the present inventors examined the SEP-catalyzed hydrolysis of other bioactive peptides that have been characterized as substrates of ECE-1 and/or NEP. […]

soluble form of SEP [2] = target: T1, soluble form of SEP; test: Inhibition of ET-1 degrading activity of recombinant soluble SEP; type: biochemical; conditions: for SEP activity: Inhibitor 100 μM, SEP partially purified from conditioned medium of CHO/SEP cells, no inhibitor = 100, unit assumed; for IC50 / inhibition of SEP activity (in words): soluble form of SEP; for IC50: ET-1 degrading activity, dose-dependent, read-out: apparent IC50, inhibition of SEP activity; for inhibition of SEP activity (in words): in vitro
Protocol: as §1, with “Double” for “CHO-K1 cells were cultured [Emoto, N. et al., J. Biol. Chem., 274:1509-1518(1999)]. Double”
as §2
The present inventors next assessed the enzymological properties of cloned SEP by using its ET-1 degrading activity.

ECE-1 and ECE-2 = conditions: ECE-1 vs ECE-2; cited from earlier work
[3] = target: T2, synthetic human big ET-1 (1-38), P05305
T2 chain: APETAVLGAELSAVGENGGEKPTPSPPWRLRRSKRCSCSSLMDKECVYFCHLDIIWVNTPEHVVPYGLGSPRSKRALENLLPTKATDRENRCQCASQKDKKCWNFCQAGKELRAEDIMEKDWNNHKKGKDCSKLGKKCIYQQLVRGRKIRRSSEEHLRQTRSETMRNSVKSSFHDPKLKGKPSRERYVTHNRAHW

[4] = target: atrial natriuretic peptide
[5] = target: T3, synthetic human ET-1 (1-21), P05305
T3 chain: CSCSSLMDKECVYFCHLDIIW

substance P, P20366 = target: T4, substance P, P20366
T4 chain: RPKPQQFFGLM

Chain of angiotensin I, P01019 (P01019 whole entry, looked up): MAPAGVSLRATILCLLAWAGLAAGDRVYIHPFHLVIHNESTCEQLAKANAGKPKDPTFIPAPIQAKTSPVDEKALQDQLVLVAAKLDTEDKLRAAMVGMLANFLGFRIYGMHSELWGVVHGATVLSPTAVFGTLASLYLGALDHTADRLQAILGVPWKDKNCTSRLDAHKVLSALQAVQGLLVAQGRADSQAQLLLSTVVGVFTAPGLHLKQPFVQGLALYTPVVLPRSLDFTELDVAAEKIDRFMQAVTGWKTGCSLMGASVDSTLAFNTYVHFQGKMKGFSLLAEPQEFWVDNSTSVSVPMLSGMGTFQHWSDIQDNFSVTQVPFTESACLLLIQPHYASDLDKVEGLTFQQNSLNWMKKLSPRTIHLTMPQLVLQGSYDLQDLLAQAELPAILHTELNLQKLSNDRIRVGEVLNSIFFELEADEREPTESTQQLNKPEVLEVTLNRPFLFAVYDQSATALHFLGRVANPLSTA
Chain of bradykinin, P01042 (P01042 whole entry, looked up): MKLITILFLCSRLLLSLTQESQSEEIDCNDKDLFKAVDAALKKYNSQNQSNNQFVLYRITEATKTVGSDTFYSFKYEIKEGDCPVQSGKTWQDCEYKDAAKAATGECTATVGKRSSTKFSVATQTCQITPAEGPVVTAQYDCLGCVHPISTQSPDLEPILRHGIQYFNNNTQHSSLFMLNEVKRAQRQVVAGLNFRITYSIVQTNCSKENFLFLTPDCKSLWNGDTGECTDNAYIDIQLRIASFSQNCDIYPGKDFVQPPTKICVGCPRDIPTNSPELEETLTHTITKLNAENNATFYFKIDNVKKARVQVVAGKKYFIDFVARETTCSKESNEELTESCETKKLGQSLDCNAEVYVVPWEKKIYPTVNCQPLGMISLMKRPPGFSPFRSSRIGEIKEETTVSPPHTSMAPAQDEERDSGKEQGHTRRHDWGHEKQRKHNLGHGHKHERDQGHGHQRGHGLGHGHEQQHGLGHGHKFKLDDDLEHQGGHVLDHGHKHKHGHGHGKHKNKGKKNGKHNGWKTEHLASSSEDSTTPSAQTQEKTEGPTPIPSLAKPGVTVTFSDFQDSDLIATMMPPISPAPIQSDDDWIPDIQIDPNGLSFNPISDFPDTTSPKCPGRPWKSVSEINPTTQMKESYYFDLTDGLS

Molecule	Hydrolysis (%) (soluble form of SEP [1])	SEP activity (soluble form of SEP [2])	inhibition of SEP activity (in words) (soluble form of SEP [2])	further results
Big endothelin-1: synthetic human big ET-1, inactive ET precursor (CSCSSLMDKECVYFCHLDIIWVNTPEHVVPYGLGSPRS; ends and bridges not checked; cysteine pairing not given here; UniProt P05305 53-90, looked up)	42%	–	–	–
CC(C)C[C@H](NP(=O)(O)O[C@@H]1O[C@@H](C)[C@H](O)[C@@H](O)[C@H]1O)C(=O)N[C@@H](Cc1c[nH]c2ccccc12)C(=O)O [Phosphoramidon]	–	8%	inhibited	IC50 (soluble form of SEP [2]): ~6 nM; sensitivity of ECE-1 to phosphoramidon lower than that of ECE-2 (ECE-1 and ECE-2): 250 fold
Substance P: bioactive peptide substrate from American Peptides	>95%	–	–	–
Endothelin-1: human ET-1, mature endothelin peptide	92%	–	–	–
RPPGFSPFR [Bradykinin]	>95%	–	–	–
C[C@H](CS)C(=O)N1CCC[C@H]1C(=O)O [Captopril, captopril]	–	103%	not inhibited	–
c1cnc2c(c1)ccc1cccnc12 [1,10-Phenanthroline, 1,10-phenanthroline]	–	1%	inhibited	–
Angiotensin I: bioactive peptide substrate from American Peptides (DRVYIHPFHL)	>95%	–	–	–
CC[C@H](C)[C@@H]1NC(=O)[C@H](CCCNC(=N)N)NC(=O)[C@H](CC(=O)O)NC(=O)[C@H](CCSC)NC(=O)[C@H](CCCNC(=N)N)NC(=O)CNC(=O)CNC(=O)[C@H](Cc2ccccc2)NC(=O)[C@@H](NC(=O)[C@H](CO)NC(=O)[C@H](CO)NC(=O)[C@H](CCCNC(=N)N)NC(=O)[C@H](CCCNC(=N)N)NC(=O)[C@H](CC(C)C)NC(=O)[C@@H](N)CO)CSSC[C@@H](C(=O)N[C@@H](CC(N)=O)C(=O)N[C@@H](CO)C(=O)N[C@@H](Cc2ccccc2)C(=O)N[C@@H](CCCNC(=N)N)C(=O)N[C@@H](Cc2ccc(O)cc2)C(=O)O)NC(=O)CNC(=O)[C@H](CC(C)C)NC(=O)CNC(=O)[C@H](CO)NC(=O)[C@H](CCC(N)=O)NC(=O)[C@H](C)NC(=O)CNC1=O [Atrial Natriuretic peptide]	>95%	–	–	–
COc1c2c(c(O)c3c1C(O)Cc1cc(CC(C)O)c(C(=O)O)c(O)c1-3)C(=O)c1cccc(O)c1C2=O (stereo not shown) [FR901533]	–	38%	not completely; also recorded: only partially inhibited	–
O=C(O)CNC(=O)C(CS)Cc1ccccc1 (stereo not shown) [Thiorphan]	–	2%	efficiently inhibited	IC50 (soluble form of SEP [2]): ~2000 nM
soluble form of SEP (soluble secreted endopeptidase), partially purified from the conditioned medium of CHO/SEP cells (protein) RALRDSSLKSDICTTPSCVIAAARILENMDQSRNPCENFYQYACGGWLRHHVIPETNSRYSVFDILRDELEVILKGVLEDSTSQHRPAVEKAKTLYRSCMNQSVIEKRDSEPLLSVLKMVGGWPVALDKWNETMGLKWELERQLAVLNSQFNRRVLIDLFIWNDDQNSSRHVIYIDQPTLGMPSREYYFQEDNNHKVRKAYPEFMTSVATMLRKDQNLSKESAMVREEMAEVLELETHLANATVPQEKRHDVTALYHRMDLMELQERFGLKGFNWTLFIQNVLSSVEVELFPDEEVVVYGIPYLENLEDIIDSYSARTMQNYLVWRLVLDRIGSLSQRFKEARVDYRKALYGTTVEEVRWRECVSYVNSNMESAVGSLYIKRAFSKDSKSTVRELIEKIRSVFVDNLDELNWMDEESKKKAQEKAMNIREQIGYPDYILEDNNKHLDEEYSSLTFYEDLYFENGLQNLKNNAQRSLKKLREKVDQNLWIIGAAVVNAFYSPNRNQIVFPAGILQPPFFSKDQPQSLNFGGIGMVIGHEITHGFDDNGRNFDKNGNMLDWWSNFSARHFQQQSQCMIYQYGNFSWELADNQNVNGFSSLGENIADNGGVRQAYKAYLRWLADGGKDQRLPGLNLTYAQLFFINYAQVWCGSYRPEFAVQSIKTDVHSPLKYRVLGSLQNLPGFSEAFHCPRGSPMHPMKRCRIW	–	–	–	Hydrolysis (%) [3]: 42%; Hydrolysis (%) (angiotensin I, P01019): > 95%; Hydrolysis (%) [4]: > 95%; Hydrolysis (%) (bradykinin, P01042): > 95%; Hydrolysis (%) [5]: 92%; Hydrolysis (%) (substance P, P20366): > 95%
